{"source": "patent US20050054097A1", "about": "“EX-VIVO expansion of hematopoietic system cell populations in mononuclear cell cultures” (priority 2002, published 2005)", "key": {"[1]": {"system": "cord blood mononuclear cells (MNC)", "assay": "FACS analysis of reselected CD34+ cell subsets (CD34+CD38-, CD34+Lin-) from MNC cultures", "type": "cell-based, human", "conditions": "for CD34+Lin- cells by FACS from reselected CD34+ cell fraction: MNC with RAR antagonists and cytokines; for cumulative number of CD34+CD38- cells: cytokines", "protocol": "Surface antigen analysis: Cells were harvested, washed with a PBS solution containing 1% bovine sera albumin (BSA) and 0.1% sodium azide (Sigma), ind stained at 4° C. for 60 minutes with fluorescein isothiocyanate or phycoerythrin-conjugated antibodies (all from Immunoquality Products, the Netherlands). The cells were then washed with the same buffer and analyzed by FACS caliber or Facstarplus flow cytometers. Cells were passed at a rate of 1000 cells/second, using saline as the sheath fluid. A 488 nm argon laser beam served as the light source for excitation. Emission of ten thousand cells was measured using logarithmic amplification, and analyzed using CellQuest software.\nReselected CD34+ cell subsets were stained for the following combination of antigens: CD34PE/CD38FITC and CD34PE/38-, 33-, 14-, 15-, 3, 4, 61, 19 (Lin) FITC.\nFACS analysis results are given as percentage values of cells. Absolute numbers of subsets are calculated from the absolute number of CD34+ cells.\nDetermination of baseline levels of CD34^+/CD38− and CD34^+/Lin^− cells was conducted as follows: CD34+ cells were purified from 3 thawed cord blood units and stained for the above markers. The mean of these experiments was considered as the baseline value.\n(§1) Total cell counts, numbers of CD34+ cells and subsets, and CFU numbers are presented as cumulative numbers, with the assumption that the cultures had not been passaged; i.e., the number of cells per ml were multiplied by the number of passages performed."}, "[2]": {"system": "cord blood mononuclear cells (MNC)", "assay": "Ex-vivo expansion of CD34+ cells in mononuclear cell (MNC) cultures; CD34+ cells reselected and counted", "type": "cell-based, human", "conditions": "for cumulative number of CD34+ cells per culture bag: cytokines, eight weeks incubation; for Number of CD34+ cells (×10^4) / Portion of CD34+ cells (%): 8 weeks"}, "[3]": {"system": "cord blood mononuclear cells (MNC)", "assay": "Ex-vivo expansion of CD34+ cells in mononuclear cell (MNC) cultures; CD34+ cells reselected and counted", "type": "cell-based, human", "conditions": "for cumulative number of CD34+ cells: MNC culture, cytokines, TEPA 5-10 μM for first three weeks", "protocol": "Sample collection and processing: Samples were obtained from umbilical cord blood after a normal full-term delivery and were frozen within 24 hours pospartum. The blood cells were thawed in Dextran buffer and incubated for 15 hours in MEM (Biological Industries, Israel) supplemented with 10% fetal calf serum (FCS; Biological Industries). The cells were then layered on Ficoll-Hypaque (density 1.077 gram/ml; Sigma) and centrifuged at 400 g for 30 minutes at room temperature. The mononuclear cells in the interface layer were then collected, washed three times in phosphate-buffered saline (PBS; Biological Industries), and re-suspended in PBS containing 0.5% human serum albumin (HSA). The cells were then split into two fractions, the first being the mononuclear cells (MNC) fraction and the second fraction was used for purifying CD34^+ cells by immunomagnetic separation using the “MiniMACS CD34^+ progenitor cell isolation kit” (Miltenyi Biotec, Auburn, Calif.) according to the manufacturer's recommendations. The purity of the CD34^+ cells obtained ranged between 95% and 98%, based on Flow Cytometry evaluation.\nEx-vivo expansion of hematopoietic stem cells: The Mononuclear cells (MNC), obtained as described hereinabove, were plated in 24-well Costar Cell Clusters (Corning Inc., Corning, N. Y.) or seeded in Culture Bags (American Fluoroseal Corp.), with alpha minimal essential medium (a-MEM) supplemented with 10% fetal bovine serum (FBS, Biological Industries), at a concentration of about 10^6 cells/ml. […]\nDetermination of CD34+ cells and subsets: CD34+ surface expression on short and long-term cultures initiated either with purified CD34+ cells or the entire MNC fraction was determined as follows: CD34+ cells were positively reselected (Miltenyi kit) and counted. […]\nMononuclear cells (MNC) were seeded in culture bags and were provided with nutrients and cytokines (50 ng/ml FLt3, IL-6, TPO and SCF) as described above. […] The cultures were analyzed weekly during a 12-week period for the number of cells, CFUc, CD34+ and CD34+CD38− cells. […]"}, "[4]": {"system": "cord blood mononuclear cells (MNC)", "assay": "Colony forming unit (CFU) ability of MNC cultures", "type": "cell-based, human", "conditions": "MNC culture, cytokines, TEPA 5-10 μM for first three weeks", "protocol": "as §1\nAssaying Colony Forming Unit (CFU) ability: Cells were cloned in semi-solid, methylcellulose-containing medium supplemented with 2 IU/ml erythropoietin (Eprex, Cilag AG Int., Switzerland), stem cell factor and IL-3, both at 20 ng/ml, and G-CSF and GM-CSF, both at 10 ng/ml (all from Perpo Tech). Cultures were incubated for 14 days at 37° C., 5% CO2 in a humidified atmosphere.\nDetermination of LTC-CFUc values: The ability of the cultures to maintain self-renewal was measured by determination of the content of colony forming unit cells in the long and extended long-term cultures (LTC-CFUc), as described in the references hereinabove."}, "[5]": {"system": "cord blood mononuclear cells (MNC)", "assay": "Morphological assessment of long-term MNC cultures (May-Grunwald/Giemsa)", "type": "cell-based, human", "conditions": "long-term TEPA-treated MNC cultures", "description": "Morphological assessment: Morphological characterization of the resulting culture populations was accomplished on aliquots of cells deposited on glass slides via cytospin (Cytocentrifuge, Shandon, Runcorn, UK). Cells were fixed, stained with May-Grunwald/Giemsa stain and examined microscopically."}, "CD34+ cell cultures": {"system": "CD34+ cell cultures", "conditions": "early acting cytokines, 5-10 μM TEPA (b8), atomic absorption; cited from earlier work"}, "[6]": {"conditions": "cytokines + RAR antagonist 10^-6 M, 2 weeks"}, "[7]": {"conditions": "cytokines + RAR antagonist 10^-6 M, 5 weeks"}}, "data": [{"compound": "CCc1ccc(C2=CC(C)(C)Sc3ccc(C#Cc4ccc(C(=O)O)cc4)cc32)cc1", "note": "[RAR antagonist]", "values": [{"measurement": "CD34+Lin- cells by FACS from reselected CD34+ cell fraction", "setting": "[1]; 2 weeks after initial seeding", "result": 78, "unit": "%"}, {"measurement": "CD34+Lin- cells by FACS from reselected CD34+ cell fraction", "setting": "[1]; 5 weeks after initial seeding", "result": 24, "unit": "%"}, {"measurement": "% CD34/Lin-", "setting": "[1]; [6]", "result": 78.4, "unit": "%"}, {"measurement": "No of CD34+/Lin- × 10^4", "setting": "[1]; [6]", "result": "132.5 × 10^4"}, {"measurement": "% CD34/Lin-", "setting": "[1]; [7]", "result": 24.1, "unit": "%"}, {"measurement": "No of CD34+/Lin- × 10^4*", "setting": "[1]; [7]", "result": "237.8 × 10^4"}, {"measurement": "No of CD34 cells × 10^4", "setting": "[2]; [6]", "result": "169 × 10^4"}, {"measurement": "No of CD34 cells × 10^4*", "setting": "[2]; [7]", "result": "985 × 10^4"}]}, {"compound": "NCCNCCNCCNCCN", "note": "[TEPA, tetraethylenepentamine]", "values": [{"measurement": "cumulative number of CD34+ cells", "setting": "[3]; after 2 weeks", "result": "non-detectable"}, {"measurement": "cumulative number of CD34+ cells", "setting": "[3]; after 12 weeks", "result": "over 8×10^7 cells/ml"}, {"measurement": "stem and progenitor cells densities versus pre-purified CD34+ cell cultures (not treated with TEPA)", "setting": "[3]; TEPA-treated MNC cultures, 12-week period", "result": "either equalized or surpassed"}, {"measurement": "cumulative number of CD34+CD38- cells", "setting": "[1]; MNC culture, TEPA 5-10 μM for first three weeks, after 2 weeks", "result": "non-detectable"}, {"measurement": "cumulative number of CD34+CD38- cells", "setting": "[1]; MNC culture, TEPA 5-10 μM for first three weeks, after 12 weeks", "result": "2.5×10^7 cells/ml"}, {"measurement": "number of CD34+ CFUs", "setting": "[4]; after 2 weeks", "result": "non-detectable"}, {"measurement": "number of CD34+ CFUs", "setting": "[4]; after 10 weeks", "result": "3.2×10^7 cells/ml"}, {"measurement": "morphological analysis of cells from long-term cultures", "setting": "[5]", "result": "a high proportion of non-differentiated cells"}, {"measurement": "reduction of cell copper content", "setting": "CD34+ cell cultures", "result": 30, "unit": "%"}]}, {"compound": "tetraethylenepentamine-copper chelate [Cu-TEPA chelate]", "values": [{"measurement": "cumulative number of CD34+CD38- cells", "setting": "[1]; 100 μM Copper-TEPA for first three weeks, eight weeks incubation", "result": "6.1×10^5"}, {"measurement": "Number of CD34/38- cells (×10^4)", "setting": "[1]; Cu-TEPA chelate 100 μM, 8 weeks", "result": "61 ×10^4"}, {"measurement": "cumulative number of CD34+ cells per culture bag", "setting": "[2]; 50 μM Copper-TEPA for first three weeks", "result": "12.37×10^6 cells per culture bag"}, {"measurement": "cumulative number of CD34+ cells per culture bag", "setting": "[2]; 100 μM Copper-TEPA for first three weeks", "result": "32.85×10^6 cells per culture bag"}, {"measurement": "Number of CD34+ cells (×10^4)", "setting": "[2]; Cu-TEPA chelate 50 μM", "result": "1237.3 ×10^4"}, {"measurement": "Portion of CD34+ cells (%)", "setting": "[2]; Cu-TEPA chelate 50 μM", "result": 1.4, "unit": "%"}, {"measurement": "Number of CD34+ cells (×10^4)", "setting": "[2]; Cu-TEPA chelate 100 μM", "result": "3285.3 ×10^4"}, {"measurement": "Portion of CD34+ cells (%)", "setting": "[2]; Cu-TEPA chelate 100 μM", "result": 1.2, "unit": "%"}]}]}
